Starred links: 1 amine or outer side, 2 acyl side, 3 side chain; linkers in the order of their positions; H or OH if unused. Positions of bridges follow the written chain, without caps; N, C: chain ends. Residues, ends and D or L forms follow the SMILES beside them. No end group written: not given here. Phenylene(1,4-NHCOCH2)2 = O=C(C[*:1])Nc1ccc(NC(=O)C[*:2])cc1; X2 = O=C(C[*:1])O[C@@H]1CC[C@H](OC(=O)C[*:2])C1; X3 = O=C(C[*:1])Nc1ccccc1NC(=O)C[*:2]
How the values were obtained:
full-length β-Catenin = molecular target: T1, full-length β-Catenin (Homo sapiens, UniProt P35222); assay: Competition fluorescence polarization assay for binding to beta-catenin (displacement of FITC labeled Axin peptide probe); details: 15 nM full-length β-Catenin, 20 nM FITC labeled Axin peptide probe, 3-fold serial dilution from 5 μM; read-out: bCat EC50
T1 construct: Probe solution (15 nM full-length β-Catenin, 20 nM FITC labeled Axin peptide in buffer)
T1 sequence (P35222 1-781): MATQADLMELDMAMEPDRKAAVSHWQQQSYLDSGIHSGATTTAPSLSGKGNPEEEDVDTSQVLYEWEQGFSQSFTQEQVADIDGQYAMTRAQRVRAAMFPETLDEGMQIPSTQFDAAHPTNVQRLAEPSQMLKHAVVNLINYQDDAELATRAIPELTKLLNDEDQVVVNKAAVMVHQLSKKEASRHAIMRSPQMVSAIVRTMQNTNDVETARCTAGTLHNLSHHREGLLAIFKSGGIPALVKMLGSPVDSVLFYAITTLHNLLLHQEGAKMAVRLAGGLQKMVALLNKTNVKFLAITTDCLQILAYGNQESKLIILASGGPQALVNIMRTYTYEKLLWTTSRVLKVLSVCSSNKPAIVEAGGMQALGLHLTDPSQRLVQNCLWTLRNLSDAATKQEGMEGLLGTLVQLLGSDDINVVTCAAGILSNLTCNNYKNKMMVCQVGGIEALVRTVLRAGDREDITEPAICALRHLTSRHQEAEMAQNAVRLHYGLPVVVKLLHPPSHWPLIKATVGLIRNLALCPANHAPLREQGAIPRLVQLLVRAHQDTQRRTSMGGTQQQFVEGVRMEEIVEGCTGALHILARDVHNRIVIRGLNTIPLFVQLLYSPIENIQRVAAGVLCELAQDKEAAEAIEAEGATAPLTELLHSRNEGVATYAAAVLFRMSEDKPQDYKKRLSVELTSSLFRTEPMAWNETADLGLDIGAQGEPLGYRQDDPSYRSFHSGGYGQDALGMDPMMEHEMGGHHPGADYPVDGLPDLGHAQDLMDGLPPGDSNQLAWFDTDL
Protocol: Peptide assessment: In one assay for assessing binding to beta-catenin, peptide solutions were prepared in buffer (50 mM Tris pH 8.0, 250 mM NaCl, 2% glycerol, 0.5 mM EDTA, 0.02% w/v sodium azide) using a 3-fold serial dilution from 5 μM. Probe solution (15 nM full-length β-Catenin, 20 nM FITC labeled Axin peptide in buffer ([FAM-PEG1-RRWPR(S5)ILD(S5)HVRRVWR (SEQ ID NO: 44)] where the two S5 residues are stapled, as reported in: Proc Natl Acad Sci USA. 2012 Oct. 30; 109(44):17942-7)) was prepared and incubated for 5 minutes, then 40 μL per well plated in a black polystyrene 384-well plate (Corning). Equal volume of the titrated peptide was added to the plate and incubated protected from light for 15 minutes prior to read. Reads were performed on a Spectramax M5 (Molecular Devices) in duplicate.

[1] = Measurement of LogD (CHI logD by HPLC); assay type: physicochemical; details: CHI log D, 50 mM ammonium acetate pH 7.4 / acetonitrile gradient, C-18 column, 25° C.
Protocol: Measurement of LogD: LogD values were measured on a Agilent 1260 HPLC with UV detector (254, 220 nm), using a Gemini NX C-18 50×3 mm column (Phenomenex) with a 6-minute 0-100% mobile phase gradient of A) 50 mM ammonium acetate pH 7.4 and B) Acetonitrile at 25° C. with a flow rate of 1 mL/min and injection volume of 3-5 uL.

| Compound | EC50 (full-length β-Catenin) [µM] | chromatographic logD [1] |
| --- | --- | --- |
| GPAKPEAPGEDASPLELNLYYLDLHDYLQQVA-NH2 (C-terminus assumed) [Compound 30] | > 10 | 0.98 |
| GPAKPEAPGEDASPIELWEYYESLETYLDNVA-NH2 (C-terminus assumed) [Compound 29] | > 10 | 0.73 |
| GPAKPEAPGEDASPDELMHYYTSLEDYLDHVP-NH2 (C-terminus assumed) [Compound 18] | > 10 | 0.52 |
| CC(C)C[C@@H]1NC(=O)[C@H](C)NC(=O)[C@H](C)NC(=O)[C@H](Cc2c[nH]c3ccccc23)NC(=O)[C@H](CCC(=O)O)NC(=O)[C@@H](NC(=O)[C@H](CCCNC(=N)N)NC(=O)[C@H](Cc2c[nH]cn2)NC(=O)[C@@H](NC(=O)[C@H](C)NC(=O)[C@@H]2CCCN2C(=O)[C@H](CC(=O)O)NC(=O)[C@H](C)N)[C@@H](C)O)CSCC(=O)Nc2cc(F)c(cc2F)NC(=O)CSC[C@@H](C(=O)N[C@@H](CCC(=O)O)C(=O)N[C@@H](CC(C)C)C(=O)N[C@H](C(N)=O)C(C)C)NC(=O)[C@H](Cc2c[nH]cn2)NC1=O [Compound 32] | 5.17 | 0.61 |
| CC(C)C[C@@H]1NC(=O)[C@H](C)NC(=O)[C@H](C)NC(=O)[C@H](Cc2c[nH]c3ccccc23)NC(=O)[C@H](CCC(=O)O)NC(=O)[C@@H](NC(=O)[C@H](CCCNC(=N)N)NC(=O)[C@H](Cc2c[nH]cn2)NC(=O)[C@@H](NC(=O)[C@H](C)NC(=O)[C@@H]2CCCN2C(=O)[C@H](CC(=O)O)NC(=O)[C@H](C)N)[C@@H](C)O)CSCC(=O)O[C@@H]2C=C[C@@H](C2)OC(=O)CSC[C@@H](C(=O)N[C@@H](CCC(=O)O)C(=O)N[C@@H](CC(C)C)C(=O)N[C@H](C(N)=O)C(C)C)NC(=O)[C@H](Cc2c[nH]cn2)NC1=O [Compound 39] | > 10 | 0.75 |
| GPAKPEAPGEDASPDELYYYYDDLRQYLSTVA-NH2 (C-terminus assumed) [Compound 23] | > 10 | 0.81 |
| GPAKPEAPGEDASPNELYYYYDELHYYLHDVA-NH2 (C-terminus assumed) [Compound 25] | > 10 | 0.59 |
| CC[C@H](C)[C@@H]1NC(=O)[C@H](CC(C)C)NC(=O)[C@H](C)NC(=O)[C@H](C)NC(=O)[C@H](Cc2c[nH]cn2)NC(=O)[C@H](CCC(=O)O)NC(=O)[C@@H](NC(=O)[C@H](C)NC(=O)[C@H](Cc2c[nH]c3ccccc23)NC(=O)[C@H](CC(C)C)NC(=O)[C@H](C)NC(=O)[C@@H]2CCCN2C(=O)[C@H](CC(=O)O)NC(=O)[C@H](C)N)CSCC(=O)O[C@@H]2CC[C@@H](C2)OC(=O)CSC[C@@H](C(=O)N[C@@H](CCC(=O)O)C(=O)N[C@H](C(=O)N[C@@H](CCC(N)=O)C(N)=O)[C@@H](C)O)NC1=O [Compound 47] (H-ADPALWACEHAALICETQ-NH2; linker 8-15 via X2; N-terminus and C-terminus assumed) | > 10 | 0.91 |
| GPAKPEAPGEDASPQELHDYYEILDNYLDWVA-NH2 (C-terminus assumed) [Compound 26] | > 10 | 0.87 |
| GPAKPEAPGEDASPDELTYYYDELRDYLYSVA-NH2 (C-terminus assumed) [Compound 19] | > 10 | 0.82 |
| GPAKPEAPGEDASPDELHTYYDTLYHYLTSVA-NH2 (C-terminus assumed) [Compound 22] | > 10 | 1.09 |
| GPAKPEAPGEDASPTELYYYYDHLTDYLDVVP-NH2 (C-terminus assumed) [Compound 24] | > 10 | 0.66 |
| GPAKPEAPGEDASPDELIFYYDHLSRYLTDVA-NH2 (C-terminus assumed) [Compound 20] | > 10 | 0.91 |
| CC[C@H](C)[C@@H]1NC(=O)[C@H](CC(C)C)NC(=O)[C@H](C)NC(=O)[C@H](C)NC(=O)[C@H](Cc2c[nH]cn2)NC(=O)[C@H](CCC(=O)O)NC(=O)[C@@H](NC(=O)[C@H](C)NC(=O)[C@H](Cc2c[nH]c3ccccc23)NC(=O)[C@H](CC(C)C)NC(=O)[C@H](C)NC(=O)[C@@H]2CCCN2C(=O)[C@H](CC(=O)O)NC(=O)[C@H](C)N)CSCC(=O)Nc2ccccc2NC(=O)CSC[C@@H](C(=O)N[C@@H](CCC(=O)O)C(=O)N[C@H](C(=O)N[C@@H](CCC(N)=O)C(N)=O)[C@@H](C)O)NC1=O [Compound 44] (H-ADPALWACEHAALICETQ-NH2; linker 8-15 via X3; N-terminus and C-terminus assumed) |  | 0.7 |
| CC(C)C[C@@H]1NC(=O)[C@H](C)NC(=O)[C@H](C)NC(=O)[C@H](Cc2c[nH]c3ccccc23)NC(=O)[C@H](CCC(=O)O)NC(=O)[C@@H](NC(=O)[C@H](CCCNC(=N)N)NC(=O)[C@H](Cc2c[nH]cn2)NC(=O)[C@@H](NC(=O)[C@H](C)NC(=O)[C@@H]2CCCN2C(=O)[C@H](CC(=O)O)NC(=O)[C@H](C)N)[C@@H](C)O)CSCC(=O)Nc2cc(Cl)c(cc2Cl)NC(=O)CSC[C@@H](C(=O)N[C@@H](CCC(=O)O)C(=O)N[C@@H](CC(C)C)C(=O)N[C@H](C(N)=O)C(C)C)NC(=O)[C@H](Cc2c[nH]cn2)NC1=O [Compound 33] |  | 0.68 |
| CC[C@H](C)[C@@H]1NC(=O)[C@H](CC(C)C)NC(=O)[C@H](C)NC(=O)[C@H](C)NC(=O)[C@H](Cc2c[nH]cn2)NC(=O)[C@H](CCC(=O)O)NC(=O)[C@@H](NC(=O)[C@H](CCC(=O)O)NC(=O)[C@H](Cc2c[nH]c3ccccc23)NC(=O)[C@H](CC(=O)O)NC(=O)[C@H](C)NC(=O)[C@@H]2CCCN2C(=O)[C@H](CC(=O)O)NC(=O)[C@H](C)N)CSCC(=O)Nc2ccc(cc2)NC(=O)CSC[C@@H](C(=O)N[C@@H](CC(=O)O)C(=O)N[C@@H](C)C(=O)N[C@@H](CCSC)C(N)=O)NC1=O [Compound 12] (H-ADPADWECEHAALICDAM-NH2; linker 8-15 via Phenylene(1,4-NHCOCH2)2; N-terminus and C-terminus assumed) |  | 0.39 |
| CC[C@H](C)[C@@H]1NC(=O)[C@@H](NC(=O)[C@H](CCC(=O)O)NC(=O)[C@H](CC(=O)O)NC(=O)[C@H](CCC(=O)O)NC(=O)[C@H](C)NC(=O)[C@@H]2CCCN2C(=O)[C@H](CC(=O)O)NC(=O)[C@H](C)N)CSCC(=O)Nc2ccc(cc2)NC(=O)CSC[C@@H](C(=O)N[C@@H](CCCNC(=N)N)C(=O)N[C@@H](Cc2c[nH]c3ccccc23)C(=O)N[C@@H](Cc2c[nH]c3ccccc23)C(N)=O)NC(=O)[C@H](CCSC)NC(=O)[C@H](Cc2c[nH]cn2)NC(=O)[C@H](C)NC(=O)[C@H](C)NC(=O)[C@H](CC(C)C)NC1=O [Compound 8] (H-ADPAEDECILAAHMCRWW-NH2; linker 8-15 via Phenylene(1,4-NHCOCH2)2; N-terminus and C-terminus assumed) |  | 0.92 |
| CC[C@H](C)[C@@H]1NC(=O)[C@H](CC(C)C)NC(=O)[C@H](C)NC(=O)[C@H](C)NC(=O)[C@H](Cc2c[nH]cn2)NC(=O)[C@H](CCC(=O)O)NC(=O)[C@@H](NC(=O)[C@H](C)NC(=O)[C@H](Cc2c[nH]c3ccccc23)NC(=O)[C@H](CC(C)C)NC(=O)[C@H](C)NC(=O)[C@@H]2CCCN2C(=O)[C@H](CC(=O)O)NC(=O)[C@H](C)N)CSCC(=O)Nc2ccc(cc2)NC(=O)CSC[C@@H](C(=O)N[C@@H](CCC(=O)O)C(=O)N[C@H](C(=O)N[C@@H](CCC(N)=O)C(N)=O)[C@@H](C)O)NC1=O [Compound 2] (H-ADPALWACEHAALICETQ-NH2; linker 8-15 via Phenylene(1,4-NHCOCH2)2; N-terminus and C-terminus assumed) |  | 0.62 |

Reference: US12398178B2, “Collections of peptides, peptide agents, and methods of use thereof” (Parabilis Medicines, Inc., priority 2018, dated 2025)
